Assay results as given in patent US9586986B2, “Substituted 7-deazapurine ribonucleosides for therapeutic uses” (Institute of Organic Chemistry and Biochemistry ASCR, v.v.i., priority 2014, dated 2017).

Columns and labels:
Assay type in all cases: cell-based, human
CCRF-CEM cells [1] = assay: BrU incorporation analysis (RNA synthesis); settings: CCRF-CEM cells treated at IC50 for 24 hrs
Description: Cells were cultured and treated as for cell cycle analysis. Before harvesting, they were pulse-labelled with 1 mM 5-bromouridine (BrU) for 30 min. The cells were fixed in 1% buffered paraformaldehyde with 0.05% of NP-40, incubated in room temperature for 15 min and than in the fridge overnight. They were then washed in 1% glycin in PBS, washed in PBS and stained with primary anti-BrdU antibody crossreacting to BrU (Exbio) for 30 min at room temperature in the dark. Cells were than washed with PBS and stained with secondary anti-mouse-FITC antibody (Sigma). Following the staining the cells are washed with PBS and fixed with 1% PBS buffered paraformaldehyde with 0.05% of NP-40. The cells were then washed with PBS, incubated with propidium iodide (0.1 mg/mL) and RNAse A (0.5 mg/mL) for 1 h at room temperature in the dark, and finally analyzed by flow cytometry using a 488 nm single-beam laser (FACSCalibur, Becton Dickinson).
(§1) However, the major mechanism of action was inhibition of RNA synthesis (BrU incorporation). […] Cell cycle alterations (G1, S, G2/M) were not observed in treated cells under specified experimental conditions.

CCRF-CEM cells [2] = assay: Mitotic cells, pH3Ser10 antibody labeling (flow cytometry); settings: CCRF-CEM cells treated at IC50 for 24 hrs
Description: (§2) After the incubation period, cells were then washed with cold 1×PBS and fixed in 70% ethanol added dropwise and stored overnight at −20° C. Afterwards, cells were washed in hypotonic citrate buffer, treated with RNase (50 μg/mL) and stained with propidium iodide. Flow cytometry using a 488 nm single-beam laser (Becton Dickinson) was used for measurement. The data were analyzed according to the program ModFitLT (Verity), and apoptosis was expressed as the percentage of cells with a propidium content lower than that in the G0/G1 population. Half of the sample was used for pH3^ser10 antibody (Sigma) labeling and subsequent flow cytometry analysis of mitotic cells.
as §1

CCRF-CEM cells [3] = assay: Cell cycle and apoptosis analysis (flow cytometry, propidium iodide); settings: for G1, % of total cell populations / G2/M, % of total cell populations / S, % of total cell populations / sub-G1 (apoptosis), % of total cell populations: CCRF-CEM cells treated at IC50 for 24 hrs
Description: as §2, §1

CCRF-CEM cells [4] = assay: BrdU incorporation analysis (DNA synthesis); settings: for BrdU+ (DNA synthesis), % of total cell populations: CCRF-CEM cells treated at IC50 for 24 hrs; for DNA synthesis inhibition in words: CCRF-CEM, IC50, 24 hours
Description: Cells were cultured as for cell cycle analysis. Before harvesting, they were pulse-labelled with 10 M 5-bromo-2′-deoxyuridine (BrdU) for 30 min. The cells were trypsinized, fixed with ice-cold 70% ethanol, incubated on ice for 30 min, washed with PBS, and resuspended in 2 M HCl for 30 min at room temperature to denature their DNA. Following neutralization with 0.1 M Na2B4O7, the cells were washed with PBS containing 0.5% Tween-20 and 1% BSA. They were then stained with primary anti-BrdU antibody (Exbio) for 30 min at room temperature in the dark. Cells were than washed with PBS and stained with secondary anti-mouse-FITC antibody (Sigma). The cells were then washed with PBS, incubated with propidium iodide (0.1 mg/mL) and RNAse A (0.5 mg/mL) for 1 h at room temperature in the dark, and finally analyzed by flow cytometry using a 488 nm single-beam laser (FACSCalibur, Becton Dickinson).
as §1

Row | Structure (SMILES) | BrU+ (RNA synthesis), % of total cell populations (CCRF-CEM cells [1]) [%] | pH3Ser10+ (mitosis), % of total cell populations (CCRF-CEM cells [2]) [%] | G1, % of total cell populations (CCRF-CEM cells [3]) [%] | G2/M, % of total cell populations (CCRF-CEM cells [3]) [%] | S, % of total cell populations (CCRF-CEM cells [3]) [%] | sub-G1 (apoptosis), % of total cell populations (CCRF-CEM cells [3]) [%] | BrdU+ (DNA synthesis), % of total cell populations (CCRF-CEM cells [4]) [%] | DNA synthesis inhibition in words (CCRF-CEM cells [4]) | apoptosis induction in words (CCRF-CEM cells [3]; CCRF-CEM, IC50, 24 hours)
1 | CN(C)c1ncnc2c1c(-c1ccsc1)cn2[C@@H]1O[C@H](CO)[C@@H](O)[C@H]1O [Compound 4d, 4-Dimethylamino-7-(β-D-ribofuranosyl)-5-(thiophen-3-yl)-7H-pyrrolo[2,3-d]pyrimidine] | 0.7 | 0.7 | 41.4 | 11.2 | 47.4 | 6.8 | 36.1 | barely inhibited | 
2 | COc1ncnc2c1c(-c1ccoc1)cn2[C@@H]1O[C@H](CO)[C@@H](O)[C@H]1O [Compound 1b, 5-(Furan-3-yl)-4-methoxy-7-(β-D-ribofuranosyl)-7H-pyrrolo[2,3-d]pyrimidine] | 0.7 | 1.6 | 43.5 | 12.3 | 44.2 | 8.5 | 44.2 |  | 
3 | CNc1ncnc2c1c(-c1ccco1)cn2[C@@H]1O[C@H](CO)[C@@H](O)[C@H]1O [Compound 3a, 5-(Furan-2-yl)-4-methylamino-7-(β-D-ribofuranosyl)-7H-pyrrolo[2,3-d]pyrimidine] | 1. | 1.4 | 42.2 | 12.1 | 45.8 | 10.6 | 47.2 |  | 
4 | C#Cc1cn([C@@H]2O[C@H](CO)[C@@H](O)[C@H]2O)c2ncnc(N(C)C)c12 [Compound 4g, 4-Dimethylamino-5-ethynyl-7-(β-D-ribofuranosyl)-7H-pyrrolo[2,3-d]pyrimidine] | 8.6 | 1.3 | 38.5 | 14.7 | 46.8 | 8.9 | 43.4 |  | 
5 | COc1ncnc2c1c(-c1ccsc1)cn2[C@@H]1O[C@H](CO)[C@@H](O)[C@H]1O [Compound 1d, 4-Methoxy-7-(β-D-ribofuranosyl)-5-(thiophen-3-yl)-7H-pyrrolo[2,3-d]pyrimidine] | 0.5 | 2.9 | 40.8 | 12.7 | 46.5 | 75 | 44.4 |  | major apoptosis
6 | CN(C)c1ncnc2c1c(I)cn2[C@@H]1O[C@H](CO)[C@@H](O)[C@H]1O [Compound 4h, 4-Dimethylamino-5-iodo-7-(β-D-ribofuranosyl)-7H-pyrrolo[2,3-d]pyrimidine] | 4.8 | 1.3 | 39.8 | 13.5 | 46.7 | 9.4 | 48.7 |  | 
7 | CSc1ncnc2c1c(-c1ccco1)cn2[C@@H]1O[C@H](CO)[C@@H](O)[C@H]1O [Compound 2a, 5-(Furan-2-yl)-4-methylsulfanyl-7-(β-D-ribofuranosyl)-7H-pyrrolo[2,3-d]pyrimidine] | 5 | 0.7 | 43.5 | 11.3 | 45.3 | 7.9 | 29.5 | barely inhibited | 
8 | CN(C)c1ncnc2c1c(-c1ccco1)cn2[C@@H]1O[C@H](CO)[C@@H](O)[C@H]1O [Compound 4a, 4-Dimethylamino-5-(furan-2-yl)-7-(β-D-ribofuranosyl)-7H-pyrrolo[2,3-d]pyrimidine] | 0.4 | 1.5 | 31 | 15.4 | 53.6 | 10.2 | 50.6 |  | 
9 | COc1ncnc2c1c(-c1ccco1)cn2[C@@H]1O[C@H](CO)[C@@H](O)[C@H]1O [Compound 1a, 5-(Furan-2-yl)-4-methoxy-7-(β-D-ribofuranosyl)-7H-pyrrolo[2,3-d]pyrimidine] | 13.8 | 1.4 | 42.8 | 12.9 | 44.3 | 6.8 | 45.3 |  | 
10 | COc1ncnc2c1c(I)cn2[C@@H]1O[C@H](CO)[C@@H](O)[C@H]1O [Compound 1h, 5-iodo-4-methoxy-7-(β-D-ribofuranosyl)-7H-pyrrolo[2,3-d]pyrimidine, reference compound] | 0.2 | 0.9 | 37.9 | 12.9 | 49.2 | 6 | 38.9 | barely inhibited | 
11 | COc1ncnc2c1c(-c1cccs1)cn2[C@@H]1O[C@H](CO)[C@@H](O)[C@H]1O [Compound 1c, 4-Methoxy-7-(β-D-ribofuranosyl)-5-(thiophen-2-yl)-7H-pyrrolo[2,3-d]pyrimidine] | 0.1 | 1.1 | 41.5 | 9.8 | 48.7 | 7.5 | 38.6 |  | 
